Assay results as given in article PMC4551797 (PLoS ONE, 2015).
Read-outs that look alike come from different tables or passages of the source.

How the values were obtained:
C57BL/6 mice = experiment: Three-day study on GLP-1 and gallbladder filling (bile weight); format: in vivo, mouse
Experimental: C57BL/6 mice, Tgr5 KO mice, or their wild-type littermate controls were orally dosed with vehicle or compounds twice per day for 3 days, with overnight fasting performed on the evening of day 2. On the morning of day 3, animals were dosed orally with compounds and then euthanized by CO2 asphyxiation at 30 minutes after the fifth dose. Plasma was collected for analysis of GLP-1 (X-36) amide as mentioned above, followed immediately by incision into the abdominal cavity to remove and weigh bile from the gallbladder.
On the third day, compound was dosed in the morning followed 30 minutes later by measurement of bile filling (A) by use of a needle and syringe and GLP-1 (x-36) amide (B) by cardiac puncture.

DIO C57BL/6 mice = experiment: Body weight, food intake and body composition in DIO mice over two weeks; format: in vivo, mouse; settings: 60 mg/kg oral once a day
Experimental: Body composition of mice was determined using Quantitative Nuclear Magnetic Resonance analysis (ECHO MRI, 3–1 Composition Analyzer; Echo Medical Systems, Houston, TX). DIO mice were randomized by body weight and fat mass prior to administration of compounds. Changes in body weight, cumulative food intake, and fat and lean mass were recorded for up to a two week period.
While compound 18 led to significant glucose lowering in an OGTT studies when dosed acutely, it remained unclear if the mechanism of TGR5-stimulated GLP-1 secretion desensitizes over time. […] In order to determine if desensitization occurs, as well as explore the potential for changes in body weight by compound 18, we obtained DIO C57BL/6 mice and randomly assigned them into either an acute or chronic study. For the acute experiment, overnight-fasted DIO mice were dosed with vehicle or 60 mg/kg of compound 18 the next morning, and an OGTT was performed 30 minutes after compound dosing using 2 g/kg glucose. For the chronic study, DIO mice were orally dosed with vehicle or 60 mg/kg compound 18 once a day for two weeks; body weights and food intake were measured during the treatment period. After two weeks, mice were over-night fasted, dosed the following morning, and subjected to an OGTT 30 minutes after compound dosing.
Diet-induced obese (DIO) C57BL/6 mice were either dosed acutely or chronically for two weeks with vehicle (white circles, white bars) or compound 18 at 60 mg/kg (black triangles, black bars). An OGTT on over-night fasted DIO mice was performed after either a single dose (A, acute) or after two weeks of dosing (B, chronic), using 2 g/kg glucose dosed 30 minutes after compound dosing. Changes in body weights (C) and cumulative food intake (D) were recorded for the two week period. n = 8; mean +/- SEM. * P < 0.01.

GPR40 = GPR40 (Homo sapiens, UniProt O14842); experiment: Selectivity: enteroendocrine GPCR GPR40
wild-type mice = experiment: Three-day study on GLP-1, PYY and bile weight in wild-type littermates; settings: 100 mg/kg oral BID 3 days, 30 min after last dose
mouse TGR5 = biological target: T1, mouse TGR5 (Mus musculus, UniProt Q80SS6); experiment: cAMP production in HEK-293 cells stably transfected with the mouse TGR5 gene (HTRF cAMP assay); format: cell-based; design: expressed in transfected cells
T1 sequence (Q80SS6 1-329): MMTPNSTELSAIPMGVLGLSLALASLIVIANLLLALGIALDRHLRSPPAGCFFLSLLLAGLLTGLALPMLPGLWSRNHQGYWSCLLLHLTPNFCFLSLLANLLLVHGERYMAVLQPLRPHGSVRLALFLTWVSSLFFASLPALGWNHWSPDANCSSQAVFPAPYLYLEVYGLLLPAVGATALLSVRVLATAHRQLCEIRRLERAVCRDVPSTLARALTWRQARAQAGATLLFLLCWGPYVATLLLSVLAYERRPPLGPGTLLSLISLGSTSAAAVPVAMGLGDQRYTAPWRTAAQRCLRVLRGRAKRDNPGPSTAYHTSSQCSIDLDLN
Experimental: HEK-293 cells were obtained from ATCC and a clonal HEK-293 line overexpressing mouse TGR5 was prepared. Both were maintained in Dulbecco’s modified Eagle’s medium (DMEM) containing 10% fetal bovine serum (FBS) and penicillin /streptomycin. Mouse STC-1 cells were obtained from ATCC under agreement with the Cold Spring Harbor Laboratories and maintained in DMEM containing 10% FBS and penicillin /streptomycin. NCI-H716 cells were obtained from ATCC and were maintained in RPMI-1640 with 10% FBS. NCI-H716 cells were cultured in 96 well plate coated with Matrigel (BD). After 72 hours, cAMP production stimulated with TGR5 agonists was measured using HTRF cAMP assay kit (CISBIO). The level of cAMP in suspensions of STC-1 cells stimulated with increasing concentrations of TGR5 agonists was also determined. […] The production of GLP-1 was determined using a GLP-1 Assay (7–36) amide kit (Mesoscale Discovery) following the manufacturer’s instructions. […]
Compound 18 is a novel small molecule agonist of TGR5 developed by Eli Lilly and Company (MW = 508.62, Fig 2A). […] In order to determine potency of compound 18 for the mouse and human TGR5 receptor in cells with endogenous levels of receptor, we measured compound 18-stimulated cAMP production and GLP-1 secretion in both mouse (STC-1) and human (NCI-H716) enteroendocrine cell lines, that we have shown to express TGR5 natively (Fig 1). […]

[1] = 1, 3, 10, 30, 100 mg/kg oral BID 3 days, 30 min after last dose

Sequence of GPR40 (O14842 whole entry, species assumed): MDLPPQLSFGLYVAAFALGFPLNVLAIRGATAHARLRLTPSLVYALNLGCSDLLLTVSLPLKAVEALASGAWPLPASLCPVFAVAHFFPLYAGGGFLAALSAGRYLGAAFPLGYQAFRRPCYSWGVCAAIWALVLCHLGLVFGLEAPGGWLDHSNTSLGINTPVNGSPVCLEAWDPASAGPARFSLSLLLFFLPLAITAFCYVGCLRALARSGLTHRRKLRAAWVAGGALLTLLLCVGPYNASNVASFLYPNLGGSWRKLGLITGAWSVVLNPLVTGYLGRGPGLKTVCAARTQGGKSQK

Structure (SMILES): CC(=O)N1CCC(C(C)N(C(=O)COc2cccc3sc4nc(C)cn4c23)c2ccc(F)cc2)CC1 (centres unmarked) [compound 18]
- bile weight (gallbladder filling) (C57BL/6 mice; [1]): clear dose dependent increase in bile weight
- plasma GLP-1 levels (C57BL/6 mice; [1]): elevated GLP-1 levels
- doses with significant effects on GLP-1 secretion (C57BL/6 mice; oral BID 3 days): ≥ 30 mg/kg
- doses with significant effects on bile weight (C57BL/6 mice; oral BID 3 days): ≥ 3 mg/kg
- food intake (DIO C57BL/6 mice): no change in food intake
- reduction in body weight gain versus vehicle (DIO C57BL/6 mice): 1.4 g
- lean mass (DIO C57BL/6 mice; P = 0.995): no difference in lean mass
- gain in fat mass (DIO C57BL/6 mice; p = 0.067): trend towards reduced gain in fat mass
- EC50 (GPR40): > 125000 nM
- GLP-1 (wild-type mice): significant increase
- PYY (wild-type mice): significant increase
- bile weight (wild-type mice): significant increase
- EC50 (mouse TGR5; HEK-293 cells over-expressing mouse TGR5, read-out: EC50, cAMP production): 24.7 nM
- EC50 (mouse TGR5; cAMP, unit inferred, x-axis in nM, read-out: EC50 HEK-293-mTGR5 (Fig 2B inset)): 24.7 nM
